From patent publication US12466820B2, “Amino quinazoline derivatives as P2X3 inhibitors” (CHIESI FARMACEUTICI S.p.A., priority 2019, dated 2025) come the findings set out here.

The target of one assay is T1, h P2X3 (Homo sapiens, UniProt P56373).
T1 sequence (P56373 1-397): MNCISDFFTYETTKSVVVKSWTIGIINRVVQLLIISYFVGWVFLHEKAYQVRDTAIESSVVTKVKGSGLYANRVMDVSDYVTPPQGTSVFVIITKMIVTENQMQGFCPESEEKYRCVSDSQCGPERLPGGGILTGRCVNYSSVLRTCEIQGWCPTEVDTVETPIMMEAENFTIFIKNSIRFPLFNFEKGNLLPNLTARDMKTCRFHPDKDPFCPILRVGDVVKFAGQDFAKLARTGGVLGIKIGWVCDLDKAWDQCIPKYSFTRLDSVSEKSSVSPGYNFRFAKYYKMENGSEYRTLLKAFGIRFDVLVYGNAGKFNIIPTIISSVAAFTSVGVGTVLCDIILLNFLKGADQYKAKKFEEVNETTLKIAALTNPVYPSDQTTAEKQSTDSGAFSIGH
Nature of the assay: In vitro electrophysiology assay for P2X3 (automated whole-cell patch clamp, Sophion Qube). In kind it is cell-based. Conditions: range of activity. The method, boiled down:
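Whole-cell automated patch clamp at room temperature, cells held at −60 mV; after two 800 nM α,β-MeATP baseline responses, antagonist preincubated 10 min then co-applied with 800 nM α,β-MeATP. Inhibition of peak current vs second agonist response; IC50 from 10-concentration curves, one concentration per cell.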

A further assay concerns the target T2, h P2X2/3 (Homo sapiens, UniProt P56373+Q9UBL9).
T2 sequence (P56373 1-397): T1 sequence (P56373 1-397)
T2 sequence (Q9UBL9 1-471): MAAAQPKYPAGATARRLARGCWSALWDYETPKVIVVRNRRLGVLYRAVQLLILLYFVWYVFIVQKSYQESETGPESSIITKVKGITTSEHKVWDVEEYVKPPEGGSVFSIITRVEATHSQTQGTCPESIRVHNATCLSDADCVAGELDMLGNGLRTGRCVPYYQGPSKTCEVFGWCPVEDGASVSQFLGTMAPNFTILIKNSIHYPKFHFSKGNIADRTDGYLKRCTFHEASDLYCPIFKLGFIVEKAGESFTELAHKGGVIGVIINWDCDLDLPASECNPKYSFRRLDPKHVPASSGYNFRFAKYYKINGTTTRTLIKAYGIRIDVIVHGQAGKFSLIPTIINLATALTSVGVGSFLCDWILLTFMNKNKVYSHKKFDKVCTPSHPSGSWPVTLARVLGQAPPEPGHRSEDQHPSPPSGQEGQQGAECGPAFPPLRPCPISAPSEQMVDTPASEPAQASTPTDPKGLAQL
Kind of assay: In vitro electrophysiology assay for P2X2/3 (same protocol, 10 μM ATP as agonist). It counts as cell-based. Conditions: Table 7, range of activity. How it is done: Cells expressing P2X3 receptors were grown according to standard practice and maintained at 37° C. in a 5% humidified CO2 atmosphere. The cells were seeded into T175 flask 2 days prior to the day of the assay and dissociated from the flasks using TrypLE when grown to confluence of 80-90%. The dissociated cells were resuspended in serum free media at a cell density of 3×10^6 cells/ml and loaded onto the Sophion Qube automated patch-clamp system. The extracellular assay buffer contained 145 mM NaCl, 4 mM KCl, 2 mM CaCl2), 1 mM MgCl2, 10 mM HEPES, and 10 mM glucose at pH 7.4. The intracellular assay solution contained 140 mM CsF, 10 mM NaCl, 10 mM EGTA, 10 mM HEPES at pH 7.2. Agonist stock solutions were prepared in H2O and diluted in bath solution prior to use. All antagonists were prepared as 10 mM stock solutions in DMSO and diluted in bath solution prior to use. All experiments were performed under the whole-cell patch clamp configuration at room temperature with 384 individual cells being voltage clamped at −60 mV simultaneously on the Sophion Qube instrument. Two baseline responses were established with the application of α,β-MeATP (800 nM), with the subsequent agonist applications being washed out using extracellular assay buffer containing 0.5 U/ml apyrase. Following the second agonist application, antagonist was incubated in the absence of α,β-MeATP for 10 minutes. After antagonist preincubation, 800 nM α,β-MeATP and antagonist were co-administered to determine the inhibitory effect of the antagonist. One concentration of an antagonist was assessed against a single cell, with different concentrations of the antagonist applied to other cells on the 384 recording substrate. The control P2X3 current amplitude was taken from the peak current amplitude from the second agonist response prior to preincubation with antagonist. The peak P2X3 current amplitude in the presence of antagonist was used to calculate the inhibitory effect at each concentration of the antagonist according to the following equation: […]
Concentration-response curves were constructed from ten different concentrations with each concentration of antagonist tested on at least two individual cells. The concentration of the antagonist to inhibit P2X3 current by 50% (IC50) was determined by fitting the data with the following equation: […]
Where ‘a’ is minimum response, ‘b’ is maximum response, ‘c’ is IC50 and ‘d’ is Hill slope.
Representative compound of the present invention have been also tested for P2X2/3 receptor.
The same assay protocol was used for the P2X2/3 assay as the P2X3 assay with two modifications: 1) 10 μM ATP was used as the agonist; and 2) the mean current amplitude was measured seven seconds after the application of agonist.

Where [1] appears, read: Table 6, inhibition of P2X3 current, agonist α,β-MeATP (800 nM).

For orientation: IC50 means the midpoint of a concentration-inhibition curve. A high value points to lower potency.

A value given as a limit tells only on which side of the number the result lay.

With `Cc1cnc(-c2cc(OC3CCOCC3)c3ncnc(NC(C)c4ccc(C)nn4)c3c2)nc1` (single isomer, unassigned) [Example 28, N-[1-(6-methylpyridazin-3-yl)ethyl]-6-(5-methylpyrimidin-2-yl)-8-tetrahydropyran-4-yloxy-quinazolin-4-amine], the figures for the IC50 at h P2X3 (setting [1]), on h P2X3 (Table 7) and at h P2X2/3 were less than 0.316 µM, less than 0.316 µM and 0.316 to 3.16 µM, respectively.

As to `COc1cc(-c2ncc(C)cn2)cc2c(NC(C)c3ccc(C(F)(F)F)nn3)ncnc12` (single isomer, unassigned) [Example 121, 8-methoxy-6-(5-methylpyrimidin-2-yl)-N-[1-[6-(trifluoromethyl)pyridazin-3-yl]ethyl]quinazolin-4-amine], the IC50 on h P2X3 (setting [1]) was 0.316 to 3.16 µM; against h P2X3 (Table 7) it was less than 0.316 µM; at h P2X2/3, 0.316 to 3.16 µM.

`COc1cc(-c2ncc(C)cn2)cc2c(NC(C)c3nc(C)no3)ncnc12` (single isomer, unassigned) [Example 123, 8-Methoxy-N-[1-(3-methyl-1,2,4-oxadiazol-5-yl)ethyl]-6-(5-methylpyrimidin-2-yl)quinazolin-4-amine]: the IC50 on h P2X3 (setting [1]) was less than 0.316 µM; at h P2X3 (Table 7), less than 0.316 µM; at h P2X2/3 it was 3.16 to 31.6 µM.

Regarding `COc1cc(-c2ccc(C)cn2)cc2c(NC(C)c3nnc(C)s3)ncnc12` (single isomer, unassigned) [Example 127, 8-methoxy-6-(5-methyl-2-pyridyl)-N-[1-(5-methyl-1,3,4-thiadiazol-2-yl)ethyl]quinazolin-4-amine], the IC50 on h P2X3 (setting [1]) was less than 0.316 µM; at h P2X3 (Table 7), less than 0.316 µM; at h P2X2/3, 3.16 to 31.6 µM.

Consider `COc1cc(-c2ncc(C)cn2)cc2c(NC(C)c3nnc(C)o3)ncnc12` (single isomer, unassigned) [Example 129], for which the concentration for half-maximal inhibition (IC50) at h P2X3 (setting [1]) is less than 0.316 µM; on h P2X3 (Table 7), less than 0.316 µM; at h P2X2/3, 3.16 to 31.6 µM.

For `COc1cc(-c2ccc(C)cn2)cc2c(NC(C)c3nc(C)no3)ncnc12` (single isomer, unassigned) [Example 163, 8-Methoxy-N-[1-(3-methyl-1,2,4-oxadiazol-5-yl)ethyl]-6-(5-methyl-2-pyridyl)quinazolin-4-amine], the values for the 50% inhibitory concentration (IC50) on h P2X3 (setting [1]), at h P2X3 (Table 7) and on h P2X2/3 were less than 0.316 µM, less than 0.316 µM and 3.16 to 31.6 µM, respectively.

In the case of `COc1cc(-c2ncc(C)cn2)cc2c(NC(CO)c3nc(C)no3)ncnc12` (single isomer, unassigned) [Example 166], the IC50 is less than 0.316 µM at h P2X3 (setting [1]), less than 0.316 µM against h P2X3 (Table 7) and 3.16 to 31.6 µM at h P2X2/3.

With `COc1cc(-c2ccc(F)cn2)cc2c(NC(C)c3ccc(C(F)(F)F)nn3)ncnc12` (single isomer, unassigned) [Example 169, 6-(5-fluoro-2-pyridyl)-8-methoxy-N-[1-[6-(trifluoromethyl)pyridazin-3-yl]ethyl]quinazolin-4-amine], the half-maximal inhibitory concentration (IC50) on h P2X3 (setting [1]) was less than 0.316 µM; on h P2X3 (Table 7), less than 0.316 µM; on h P2X2/3 it was 3.16 to 31.6 µM.

Regarding `COc1cc(-c2ccc(F)cn2)cc2c(NC(C)c3nnc(C)s3)ncnc12` (single isomer, unassigned) [Example 173, 6-(5-fluoropyridin-2-yl)-8-methoxy-N-(1-(5-methyl-1,3,4-thiadiazol-2-yl)ethyl)quinazolin-4-amine], the half-inhibitory concentration (IC50) on h P2X3 (setting [1]) was in the range of 0.316 to 3.16 µM; against h P2X3 (Table 7), 0.316 to 3.16 µM; on h P2X2/3 it was 3.16 to 31.6 µM.

On to `COc1cc(-c2ccc(F)cn2)cc2c(NC(C)c3nnc(C)s3)ncnc12` (single isomer, unassigned) [Example 174, 6-(5-fluoropyridin-2-yl)-8-methoxy-N-(1-(5-methyl-1,3,4-thiadiazol-2-yl)ethyl)quinazolin-4-amine], for which the concentration for half-maximal inhibition (IC50) at h P2X3 (setting [1]) and against h P2X3 (Table 7) was less than 0.316 µM in each case. Moreover, the “h P2X2/3” value on h P2X2/3 is “+ (+: 5.5<pIC50 h P2X3 or h P2X2/3>4.5)”.

With `COc1cc(-c2ccc(F)cn2)cc2c(NC(C)c3nc(C)no3)ncnc12` (single isomer, unassigned) [Example 176, 6-(5-fluoropyridin-2-yl)-8-methoxy-N-(1-(3-methyl-1,2,4-oxadiazol-5-yl)ethyl)quinazolin-4-amine], the IC50 at h P2X3 (setting [1]) was less than 0.316 µM; against h P2X3 (Table 7) it was less than 0.316 µM; on h P2X2/3, 3.16 to 31.6 µM.

With `COc1cc(-c2ccc(F)cc2)cc2c(NC(C)c3cccc(=O)[nH]3)ncnc12` (single isomer, unassigned) [Example 190, 6-(1-((6-(4-Fluorophenyl)-8-methoxyquinazolin-4-yl)amino)ethyl)pyridin-2(1H)-one], the concentration for half-maximal inhibition (IC50) at h P2X3 (setting [1]) lay within 0.316 to 3.16 µM; against h P2X3 (Table 7), 0.316 to 3.16 µM; on h P2X2/3 it was 3.16 to 31.6 µM.

`COc1cc(-c2ccc(F)cc2)cc2c(NC(C)c3cccc(=O)[nH]3)ncnc12` (single isomer, unassigned) [Example 191, 6-(1-((6-(4-Fluorophenyl)-8-methoxyquinazolin-4-yl)amino)ethyl)pyridin-2(1H)-one]: the half-maximal inhibitory concentration (IC50) at h P2X3 (setting [1]) was less than 0.316 µM; against h P2X3 (Table 7) it was less than 0.316 µM; on h P2X2/3 it was 0.316 to 3.16 µM.

Turning to `COc1cc(-c2ccc(F)cc2)cc2c(NC(C)c3nc(-c4ccncc4)no3)ncnc12` (single isomer, unassigned) [Example 193, 6-(4-fluorophenyl)-8-methoxy-N-(1-(3-(pyridin-4-yl)-1,2,4-oxadiazol-5-yl)ethyl)quinazolin-4-amine], the half-inhibitory concentration (IC50) on h P2X3 (setting [1]) is less than 0.316 µM; against h P2X3 (Table 7), less than 0.316 µM; at h P2X2/3, 0.316 to 3.16 µM.

`COc1cc(-c2ccc(F)cn2)cc2c(NC(C)c3nc(C)no3)ncnc12` (centres unmarked) [Example 2, 6-(5-fluoropyridin-2-yl)-8-methoxy-N-(1-(3-methyl-1,2,4-oxadiazol-5-yl)ethyl)quinazolin-4-amine]: the IC50 on h P2X3 (setting [1]) was less than 0.316 µM; on h P2X3 (Table 7), less than 0.316 µM; on h P2X2/3 it was 3.16 to 31.6 µM.

On to `COc1cc(-c2ncc(C)s2)cc2c(N[C@H](C)c3ccc(C)nn3)ncnc12` [Example 5, (R)-8-methoxy-N-(1-(6-methylpyridazin-3-yl)ethyl)-6-(5-methylthiazol-2-yl)quinazolin-4-amine], for which the concentration for half-maximal inhibition (IC50) was less than 0.316 µM at h P2X3 (setting [1]), less than 0.316 µM at h P2X3 (Table 7) and 0.316 to 3.16 µM at h P2X2/3.

In the case of `CNS(=O)(=O)c1cc(-c2ccc(F)cc2)cc2c(N[C@H](C)c3ccc(C)nn3)ncnc12` [Example 19, (R)-6-(4-fluorophenyl)-N-methyl-4-((1-(6-methylpyridazin-3-yl)ethyl)amino)quinazoline-8-sulfonamide], at h P2X2/3, the IC50 lay in the range of 0.316 to 3.16 µM.

The compound `CNS(=O)(=O)c1cc(-c2ccc(F)cc2)cc2c(N[C@H](C)c3noc(C)n3)ncnc12` [Example 20, (R)-6-(4-fluorophenyl)-N-methyl-4-((1-(5-methyl-1,2,4-oxadiazol-3-yl)ethyl)amino)quinazoline-8-sulfonamide] yielded an IC50 on h P2X2/3 of 0.316 to 3.16 µM.
